Measurements: PMC9569529, “Safe and Efficient Sigma1 Ligand: A Potential Drug Candidate for Multiple Sclerosis” (International Journal of Molecular Sciences, 2022)

Assays:
S1R = biological target: T1, S1R (Homo sapiens, UniProt Q99720); set-up: method as in PMID 28756263; conditions: selectivity index; cited from earlier work
T1 construct: host or cells: Jurkat cell membranes

S. typhimurium TA102 = conditions: Salmonella typhimurium
QT interval = test: ECG QT interval analysis under isoflurane anesthesia; conditions: for QT Interval Basal / QT Interval 3 min / QT Interval 6 min / QT Interval 10 min / QT Interval 20 min / QT Interval 30 min: in ms (unit assumed); for QT Interval 3 min: 3 min after injection; for QT Interval 6 min: 6 min after injection; for QT Interval 10 min: 10 min after injection; for QT Interval 20 min: 20 min after injection; for QT Interval 30 min: 30 min after injection
Experimental: Four electrodes were inserted subcutaneously in the mouse limbs. Electrical signals were recorded with a Powerlab (Ad instruments) and analyzed with LabChart Pro software (v8.1.19).
Heart rate and PR, QRS and QT intervals were measured as described in Supplementary Figure S3.

[1] = tested on: experimental autoimmune encephalomyelitis (EAE); test: Relapsing EAE (PLP 139-151), curative protocol; type: in vivo, female SJL/J mice
TK6 cells = test: In vitro micronucleus test
Experimental: The frequency of micronucleated (MN) cells was determined out of at least 2000 mononucleated cells.

CYP1A2 = test: CYP induction in human hepatocytes (mRNA, qPCR); type: in vitro ADME; conditions: 10 µM
Experimental: (§1) The compound was classically evaluated at 10 µM for all the ADME analyses. Bidirectional permeability (apical A to basolateral B pH 6.5/7.4 and basolateral B to apical A pH 7.4/6.5) was assessed in the epithelial colorectal adenocarcinoma cell line (Caco-2 cell line). Results were expressed as × 10^−6cm/s (Papp) and as % recovery. Efflux ratio, i.e., Papp(B-A)/Papp(A-B), was calculated. Plasma protein binding was analyzed by HPLC-MS/MS after 4-h incubation at 37 °C, as described by Banker et al.. Concentration was evaluated by LC/MS-MS. CYP inhibition was performed in human liver microsomes as described in [61]. Analysis of the respective metabolites. was performed by HPLC-MS/MS. Transporter inhibition analysis was also performed in overexpressing cell lines. Respective metabolites for each specific transporter substrate were analyzed by fluorometry or scintillation counting and % inhibition of control values were calculated. P-glycoprotein transporter substrate assessment was performed by bidirectional permeability analysis (apical A to basolateral B pH 7.4/7.4 and basolateral B to apical A pH 7.4/7.4) in the Caco-2 cell line with and without verapamil, as described in [59]. Results were expressed as ×10^−6 cm/s (Papp) and as % recovery. The efflux ratio, i.e., Papp(B-A)/Papp(A-B), was calculated. CYP450 induction characterization was performed on human hepatocytes. The mRNA levels of 7 different CYPs were analyzed by qPCR, as described in [72]. The compound was evaluated at 1, 10 and 100 µM. Fold-induction values were determined and compared to cut-off values, as defined for each CYP isozyme in each hepatocyte lot.

CYP3A4 = test: CYP induction in human hepatocytes (mRNA, qPCR); type: in vitro ADME; conditions: 10 µM
Experimental: as §1

CYP2B6 = test: CYP induction in human hepatocytes (mRNA, qPCR); type: in vitro ADME; conditions: 10 µM
Experimental: as §1

S. typhimurium TA98 = test: Ames test; conditions: 7i 40 µg/plate
[2] = tested on: human peripheral blood mononuclear cells (hPBMCs); test: Immunotoxicity, immunophenotyping by flow cytometry; type: cell-based; conditions: 10 µM, 48 h
Experimental: Immunotoxicity analysis was performed by Immune Insight CRO (Lille, France) on human peripheral blood mononuclear cells (hPBMCs) from six individual healthy donors. hPBMCs were either non-stimulated (basal) or stimulated using E. coli lipopolysaccharide (LPS, Sigma Aldrich, St. Louis, MO, USA) at 100 ng/mL. hPBMCs were activated with plate-bound anti-CD3 (10 ng/mL) monoclonal antibody (mAb) and incubated at 37 °C for 2 h before the culture and soluble anti-CD28 (10 ng/mL) mAb (Clinisciences, Montrouge, France) were added. Compound 7i was tested at 10 µM. The quality of hPBMC activation was controlled using cytometric analysis based on CD25 staining and proliferation assays based on ^3H-thymidine incorporation. Immune cell subpopulations were immunophenotyped among hPBMCs by flow cytometry on an Attune NxT (Thermofisher Scientific Inc. Waltham, MA, USA). Analyses were performed at 48 h post treatment. The expression of B, CD4, CD8, Th17 and Treg lymphocyte surface antigens was tested using monoclonal mouse anti-human Ab (Miltenyi Biotec SAS, Paris, France) (Table 9). […]

[3] = 3 h treatment + 24 h recovery, +S9, 68.75 µg/mL
[4] = 3 h treatment + 24 h recovery, +S9, 137.5 µg/mL
[5] = 3 h treatment + 24 h recovery, +S9, 275 µg/mL
[6] = 3 h treatment + 24 h recovery, −S9, 68.78 µg/mL
[7] = 3 h treatment + 24 h recovery, −S9, 137.5 µg/mL
[8] = 3 h treatment + 24 h recovery, −S9, 275 µg/mL
[9] = 27 h continuous treatment, −S9, 68.75 µg/mL
[10] = 27 h continuous treatment, −S9, 137.5 µg/mL
[11] = 27 h continuous treatment, −S9, 275 µg/mL

T1 sequence (Q99720 whole entry): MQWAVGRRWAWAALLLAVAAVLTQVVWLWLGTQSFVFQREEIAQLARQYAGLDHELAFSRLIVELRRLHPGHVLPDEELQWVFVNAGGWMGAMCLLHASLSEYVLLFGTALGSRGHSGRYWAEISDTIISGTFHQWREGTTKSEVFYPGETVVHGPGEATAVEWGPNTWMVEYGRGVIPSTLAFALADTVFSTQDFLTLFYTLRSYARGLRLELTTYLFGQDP

Structure (SMILES): CN(CCCNC(=O)c1ccc(Cl)cc1)Cc1ccccc1 [compound 7i]
- Ki Ratio S2R/S1R (S1R): 60
- Ames TA102 +S9 (Mean revertants/well per title) (S. typhimurium TA102): 1.0
- Ames TA102 −S9 (Mean revertants/well per title) (S. typhimurium TA102): 0.7
- QT Interval Basal (QT interval; 0.5 mg/kg i.p. group): 49 ± 3
- QT Interval 3 min (QT interval; 0.5 mg/kg i.p.): 48 ± 4
- QT Interval 6 min (QT interval; 0.5 mg/kg i.p.): 46 ± 4
- QT Interval 10 min (QT interval; 0.5 mg/kg i.p.): 53 ± 3
- QT Interval 20 min (QT interval; 0.5 mg/kg i.p.): 59 ± 4
- QT Interval 30 min (QT interval; 0.5 mg/kg i.p.): 58 ± 3
- QT Interval Basal (QT interval; 1.0 mg/kg i.p. group): 48 ± 1
- QT Interval 3 min (QT interval; 1.0 mg/kg i.p.): 45 ± 2
- QT Interval 6 min (QT interval; 1.0 mg/kg i.p.): 46 ± 2
- QT Interval 10 min (QT interval; 1.0 mg/kg i.p.): >49 ± 1
- QT Interval Basal (QT interval; 10.0 mg/kg i.p. group): 46 ± 1
- QT Interval 3 min (QT interval; 10.0 mg/kg i.p.): 43 ± 1
- QT Interval 6 min (QT interval; 10.0 mg/kg i.p.): 45 ± 3
- QT Interval 10 min (QT interval; 10.0 mg/kg i.p.): 49 ± 2
- QT Interval 20 min (QT interval; 10.0 mg/kg i.p.): 52 ± 1
- QT Interval 30 min (QT interval; 10.0 mg/kg i.p.): 54 ± 1
- cardiac repolarization (QT interval), conclusion (QT interval; 0.5 to 10 mg/kg i.p.): no alteration in cardiac repolarization
- heart rate, PR and QRS duration (QT interval; 0.5 to 10 mg/kg i.p.): did not alter
- pro-arrhythmic effect (QT interval; 0.5 to 10 mg/kg i.p.): does not induce a pro-arrhythmic effect
- EAE global evolution ([1]; 0.5 mg/kg i.p. daily for 15 days from score 2, followed 80 days): significantly reduced
- EAE course ([1]; 0.5 mg/kg p.o. daily for 15 days from score 2): significant decrease
- effect on EAE development after BD-1047 pretreatment ([1]; BD-1047 10 mg/kg i.p. 20 min before 7i): blocked
- second relapse ([1]; i.p., 0.5 and 1 mg/kg daily for 15 days): No second relapse
- effect on clinical score during treatment (first relapse) ([1]; i.p., 0.5 and 1 mg/kg, more pronounced at 1 mg/kg): visible from the first days of treatment
- maximal clinical grade during the entire disease course ([1]; orally treated animals): ≤ 2 grade
- clinical grade reached during the 15 days of administration ([1]; p.o. 0.5 mg/kg): 1 grade
- rebound effect after end of treatment ([1]; p.o., as in i.p. administration): No rebound effect
- MN/2 × 10^3 Cells (TK6 cells; [3]): 10.5
- RS (%) (TK6 cells; [3]): 106.1%
- MN/2 × 10^3 Cells (TK6 cells; [4]): 6.0
- RS (%) (TK6 cells; [4]): 97.2%
- MN/2 × 10^3 Cells (TK6 cells; [5]): 9.0
- RS (%) (TK6 cells; [5]): 103.7%
- MN/2 × 10^3 Cells (TK6 cells; [6]): 6.0
- RS (%) (TK6 cells; [6]): 94.1%
- MN/2 × 10^3 Cells (TK6 cells; [7]): 8.0
- RS (%) (TK6 cells; [7]): 92.7%
- MN/2 × 10^3 Cells (TK6 cells; [8]): 8.0
- RS (%) (TK6 cells; [8]): 80.0%
- MN/2 × 10^3 Cells (TK6 cells; [9]): 1.0
- RS (%) (TK6 cells; [9]): 86.6%
- MN/2 × 10^3 Cells (TK6 cells; [10]): 7.0
- RS (%) (TK6 cells; [10]): 84.2%
- MN/2 × 10^3 Cells (TK6 cells; [11]): 6.0
- RS (%) (TK6 cells; [11]): 70.1%
- genotoxic characteristics (micronucleus, conclusion) (TK6 cells; TK6 cells, ±S9): no genotoxic characteristics
- modulation of CYP1A2 (induction, conclusion) (CYP1A2; three donors): No modulation
- CYPs induction CYP1A2, donor #1 (CYP1A2; donor #1, cut-off (2)): 2.7%
- CYPs induction CYP1A2, donor #2 (CYP1A2; donor #2, cut-off (5)): 1.5%
- CYPs induction CYP1A2, donor #3 (CYP1A2; donor #3, cut-off (2)): 1.9%
- modulation of CYP3A4 (induction, conclusion) (CYP3A4; three donors): No modulation
- CYPs induction CYP3A4, donor #1 (CYP3A4; donor #1, cut-off (4)): 4.2%
- CYPs induction CYP3A4, donor #2 (CYP3A4; donor #2, cut-off (6)): 1.6%
- CYPs induction CYP3A4, donor #3 (CYP3A4; donor #3, cut-off (3)): 0.8%
- modulation of CYP2B6 (induction, conclusion) (CYP2B6; three donors): No modulation
- CYPs induction CYP2B6, donor #1 (CYP2B6; donor #1, cut-off (3)): 4.1%
- CYPs induction CYP2B6, donor #2 (CYP2B6; donor #2, cut-off (4)): 4.1%
- CYPs induction CYP2B6, donor #3 (CYP2B6; donor #3, cut-off (2)): 4.2%
- Ames TA98 +S9 (Mean revertants/well per title) (S. typhimurium TA98; +S9, positive control 2-anthramine 0.5): 1.1
- Ames TA98 −S9 (Mean revertants/well per title) (S. typhimurium TA98; −S9, positive control 2-nitrofluorene 0.5): 1.1
- effect on percentage of B, Th17, CD4 and CD8 T lymphocyte subpopulations and regulatory T cells ([2]; basal non-stimulating conditions): no effect
- toxicity on immune subpopulations ([2]; stimulating or not stimulating conditions): no toxicity effect
